Source: PubChem BioAssay (NCI)
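Cultured in 96-well plates, cells were exposed to test compound for 48 hours across five concentrations. The concentration for 50% growth inhibition is given as GI50. TGI marks complete inhibition of growth.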

What was measured:
Assay in all cases: DTP human tumour cell line panel, 48 h
OVCAR-3 ovarian = system: OVCAR-3 ovarian
IGROV1 ovarian = system: IGROV1 ovarian
T-47D breast = system: T-47D breast
HCC-2998 colon = system: HCC-2998 colon
TK-10 renal = system: TK-10 renal
SF-539 CNS = system: SF-539 CNS
HS 578T breast = system: HS 578T breast
UACC-62 melanoma = system: UACC-62 melanoma
U251 CNS = system: U251 CNS
HOP-92 NSCLC = system: HOP-92 NSCLC
KM12 colon = system: KM12 colon
CAKI-1 renal = system: CAKI-1 renal
OVCAR-4 ovarian = system: OVCAR-4 ovarian
DU-145 prostate = system: DU-145 prostate
786-0 renal = system: 786-0 renal
SW-620 colon = system: SW-620 colon
SNB-19 CNS = system: SNB-19 CNS
NCI-H522 lung = system: NCI-H522 lung
UACC-257 melanoma = system: UACC-257 melanoma
LOX IMVI melanoma = system: LOX IMVI melanoma
BT-549 breast = system: BT-549 breast
M14 melanoma = system: M14 melanoma
A549 NSCLC = system: A549 NSCLC
HT29 colon = system: HT29 colon
MCF7 breast = system: MCF7 breast
HCT-116 colon = system: HCT-116 colon
SK-MEL-28 melanoma = system: SK-MEL-28 melanoma
UO-31 renal = system: UO-31 renal
HOP-62 NSCLC = system: HOP-62 NSCLC
ACHN renal = system: ACHN renal
A498 renal = system: A498 renal
NCI-H23 lung = system: NCI-H23 lung
SK-MEL-5 melanoma = system: SK-MEL-5 melanoma
MDA-MB-435 = system: MDA-MB-435
COLO 205 colon = system: COLO 205 colon
PC-3 prostate = system: PC-3 prostate
SN12C renal = system: SN12C renal
HCT-15 colon = system: HCT-15 colon
SF-295 CNS = system: SF-295 CNS
CCRF-CEM leukemia = system: CCRF-CEM leukemia
RPMI-8226 leukemia = system: RPMI-8226 leukemia
SF-268 CNS = system: SF-268 CNS
SK-MEL-2 melanoma = system: SK-MEL-2 melanoma
NCI/ADR-RES ovarian = system: NCI/ADR-RES ovarian
SR leukemia = system: SR leukemia
MDA-MB-231 breast = system: MDA-MB-231 breast
SNB-75 CNS = system: SNB-75 CNS
NCI-H460 lung = system: NCI-H460 lung
SK-OV-3 ovarian = system: SK-OV-3 ovarian
NCI-H226 lung = system: NCI-H226 lung
MOLT-4 leukemia = system: MOLT-4 leukemia
HL-60(TB) leukemia = system: HL-60(TB) leukemia

`COc1ccc2nc3cc(Cl)ccc3c(NCCCCCN3CCCCC3)c2c1` showed a GI50 (OVCAR-3 ovarian) of 123 nM, a TGI (OVCAR-3 ovarian) of 2240 nM and a GI50 (IGROV1 ovarian) of 88.8 nM. It also gave a TGI (IGROV1 ovarian) of 4100 nM, a GI50 (T-47D breast) of 1940 nM and a TGI (T-47D breast) of 4580 nM. For the same compound, the GI50 (HCC-2998 colon) was 67.3 nM, the TGI (HCC-2998 colon) was 2050 nM and the GI50 (TK-10 renal) was 1570 nM. The TGI (TK-10 renal) was 3660 nM, the GI50 (SF-539 CNS) was 55.9 nM and the TGI (SF-539 CNS) was 2290 nM. For the same compound, the GI50 (HS 578T breast) was 1820 nM, the TGI (HS 578T breast) was 4500 nM and the GI50 (UACC-62 melanoma) was 2070 nM. The TGI (UACC-62 melanoma) was 3930 nM, the GI50 (U251 CNS) was 1310 nM and the TGI (U251 CNS) was 3100 nM. The GI50 (HOP-92 NSCLC) was 1620 nM, the TGI (HOP-92 NSCLC) was 4100 nM and the GI50 (KM12 colon) was 57.6 nM. For the same compound, the TGI (KM12 colon) was 2700 nM, the GI50 (CAKI-1 renal) was 1330 nM and the TGI (CAKI-1 renal) was 4030 nM. The GI50 (OVCAR-4 ovarian) was 86 nM, the TGI (OVCAR-4 ovarian) was 3010 nM and the GI50 (DU-145 prostate) was 55.8 nM. The TGI (DU-145 prostate) was 2460 nM, the GI50 (786-0 renal) was 56 nM and the TGI (786-0 renal) was 1950 nM. It also gave a GI50 (SW-620 colon) of 36.9 nM, a TGI (SW-620 colon) of 2160 nM and a GI50 (SNB-19 CNS) of 1140 nM. It also gave a TGI (SNB-19 CNS) of 5540 nM, a GI50 (NCI-H522 lung) of 1440 nM and a TGI (NCI-H522 lung) of 3270 nM. For the same compound, the GI50 (UACC-257 melanoma) was 1940 nM, the TGI (UACC-257 melanoma) was 3770 nM and the GI50 (LOX IMVI melanoma) was 35.5 nM. The TGI (LOX IMVI melanoma) was 1440 nM, the GI50 (BT-549 breast) was 1720 nM and the TGI (BT-549 breast) was 3280 nM. It also gave a GI50 (M14 melanoma) of 1650 nM, a TGI (M14 melanoma) of 3150 nM and a GI50 (A549 NSCLC) of 68 nM. The TGI (A549 NSCLC) was 2730 nM, the GI50 (HT29 colon) was 33.8 nM and the TGI (HT29 colon) was 1590 nM. It also gave a GI50 (MCF7 breast) of 40.8 nM, a TGI (MCF7 breast) of 2130 nM and a GI50 (HCT-116 colon) of 43.5 nM. The TGI (HCT-116 colon) was 1910 nM, the GI50 (SK-MEL-28 melanoma) was 1860 nM and the TGI (SK-MEL-28 melanoma) was 3670 nM. It also gave a GI50 (UO-31 renal) of 1430 nM, a TGI (UO-31 renal) of 3700 nM and a GI50 (HOP-62 NSCLC) of 65.4 nM. It also gave a TGI (HOP-62 NSCLC) of 2630 nM, a GI50 (ACHN renal) of 44.7 nM and a TGI (ACHN renal) of 2840 nM. For the same compound, the GI50 (A498 renal) was 11.4 nM, the TGI (A498 renal) was 1880 nM and the GI50 (NCI-H23 lung) was 1090 nM. For the same compound, the TGI (NCI-H23 lung) was 2850 nM, the GI50 (SK-MEL-5 melanoma) was 1600 nM and the TGI (SK-MEL-5 melanoma) was 2960 nM. The GI50 (MDA-MB-435) was 1370 nM, the TGI (MDA-MB-435) was 2730 nM and the GI50 (COLO 205 colon) was 66.8 nM. The TGI (COLO 205 colon) was 2320 nM, the GI50 (PC-3 prostate) was 1070 nM and the TGI (PC-3 prostate) was 4510 nM. The GI50 (SN12C renal) was 76.3 nM, the TGI (SN12C renal) was 4700 nM and the GI50 (HCT-15 colon) was 41.2 nM. It also gave a TGI (HCT-15 colon) of 1850 nM, a GI50 (SF-295 CNS) of 50.2 nM and a TGI (SF-295 CNS) of 1910 nM. It also gave a GI50 (CCRF-CEM leukemia) of 73 nM, a TGI (CCRF-CEM leukemia) of 6380 nM and a GI50 (RPMI-8226 leukemia) of 1950 nM. For the same compound, the TGI (RPMI-8226 leukemia) was 6320 nM, the GI50 (SF-268 CNS) was 1030 nM and the TGI (SF-268 CNS) was 2880 nM. The GI50 (SK-MEL-2 melanoma) was 2220 nM, the TGI (SK-MEL-2 melanoma) was 4040 nM and the GI50 (NCI/ADR-RES ovarian) was 82.5 nM. The TGI (NCI/ADR-RES ovarian) was 4240 nM, the GI50 (SR leukemia) was 31.4 nM and the TGI (SR leukemia) was 2130 nM. The GI50 (MDA-MB-231 breast) was 1010 nM, the TGI (MDA-MB-231 breast) was 3100 nM and the GI50 (SNB-75 CNS) was 1270 nM. It also gave a TGI (SNB-75 CNS) of 2560 nM, a GI50 (NCI-H460 lung) of 36.1 nM and a TGI (NCI-H460 lung) of 1450 nM. The GI50 (SK-OV-3 ovarian) was 1260 nM, the TGI (SK-OV-3 ovarian) was 3100 nM and the GI50 (NCI-H226 lung) was 1100 nM. It also gave a TGI (NCI-H226 lung) of 3330 nM, a GI50 (MOLT-4 leukemia) of 41.6 nM and a TGI (MOLT-4 leukemia) of 3120 nM. The GI50 (HL-60(TB) leukemia) was 1550 nM and the TGI (HL-60(TB) leukemia) was 3540 nM.
